Measurements as given in patent publication US20050075382A1, “N-Aryl-2-cyanooxazolidinones and their derivatives” (priority 2003, published 2005).
Values after ≈ are worked out from the molar mass of the structure shown.

Tested on: Staphylococcus aureus (SAUR 9213)
Experiment: MIC by standard agar dilution method
Type: cell-based
Details: Mueller Hinton agar, overnight at 35° C.
Description: The antibacterial agents of this invention have useful activity against a variety of organisms. The in vitro activity of compounds of this invention can be assessed by standard testing procedures such as the determination of minimum inhibitory concentration (MIC) by agar dilution as described in “Approved Standard. Methods for Dilution Antimicrobial Susceptibility Tests for Bacteria That Grow Aerobically”, 3rd. ed., published 1993 by the National Committee for Clinical Laboratory Standards, Villanova, Pa., USA. The in vitro MICs of test compounds are determined by a standard agar dilution method. A stock drug solution of each analog is prepared in the preferred solvent, usually DMSO:H2O (1:3). Serial 2-fold dilutions of each sample are made using 1.0 ml aliquots of sterile distilled water. To each 1.0 ml aliquot of drug is added 9 ml of molten Mueller Hinton agar medium. The drug-supplemented agar is mixed, poured into 15×100 mm petri dishes, and allowed to solidify and dry prior to inoculation. Vials of each of the test organisms are maintained frozen in the vapor phase of a liquid nitrogen freezer. Test cultures are grown overnight at 35° C. on the medium appropriate for the organism. Colonies are harvested with a sterile swab, and cell suspensions are prepared in Trypticase Soy broth (TSB) to equal the turbidity of a 0.5 McFarland standard. A 1:20 dilution of each suspension is made in TSB. The plates containing the drug supplemented agar are inoculated with a 0.001 ml drop of the cell suspension using a Steers replicator, yielding approximately 10^4 to 10^5 cells per spot. The plates are incubated overnight at 35° C. Following incubation the Minimum Inhibitory Concentration (MIC μg/ml), the lowest concentration of drug that inhibits visible growth of the organism, is read and recorded.

How did the MIC turn out when `Cc1nnc(-c2ccc(N3C[C@H](C#N)OC3=O)cc2F)s1` [Example 4, (5R)-3-[3-fluoro-4-(5-methyl-1,3,4-thiadiazol-2-yl)phenyl]-2-oxo-1,3-oxazolidine-5-carbonitrile] was run?
Its MIC is 4 µg/mL (≈ 13.1 µM).

`N#C[C@H]1CN(c2cc(F)c(N3CCS(=O)(=O)CC3)c(F)c2)C(=O)O1` [Example 3, (5R)-3-[4-(1,1-dioxidothiomorpholin-4-yl)-3,5-difluorophenyl]-2-oxo-1,3-oxazolidine-5-carbonitrile] was tested. Which MIC did it give?
Its MIC is 2 µg/mL (≈ 5.6 µM).

For `N#C[C@H]1CN(c2ccc(-c3ccncc3)c(F)c2)C(=O)O1` [Example 5, (5R)-3-(3-fluoro-4-pyridin-4-ylphenyl)-2-oxo-1,3-oxazolidine-5-carbonitrile], which MIC is on record?
The MIC was 0.5 µg/mL (≈ 1.77 µM).

How did the MIC turn out when `N#C[C@H]1CN(c2ccc(N3CCOCC3)c(F)c2)C(=O)O1` [Example 2, (5R)-3-(3-fluoro-4-morpholin-4-ylphenyl)-2-oxo-1,3-oxazolidine-5-carbonitrile] was run?
The MIC was 8 µg/mL (≈ 27.5 µM).

Which MIC does the source give for `N#C[C@H]1CN(c2ccc(C3CCS(=O)(=O)CC3)c(F)c2)C(=O)O1` [Example 1, (5R)-3-[4-(1,1-dioxidotetrahydro-2H-thiopyran-4-yl)-3-fluorophenyl]-2-oxo-1,3-oxazolidine-5-carbonitrile] here?
Its MIC is 1 µg/mL (≈ 2.96 µM).
